Read-outs that look alike come from different tables or passages of the source.
Target: T1, human histamine H3 receptor (Homo sapiens, UniProt Q9Y5N1)
T1 construct: One microgram of supercoiled H3 receptor cDNA was added to the cells and mixed; expressed in transfected cells; membranes prepared from cell pellets
Assay: [3H]-N-methylhistamine binding
Description: Transfection of Cells with Human Histamine Receptor
A 10 cm tissue culture dish with a confluent monolayer of SK-N-MC cells was split two days prior to transfection. Using sterile technique the media were removed and the cells were detached from the dish by the addition of trypsin. One fifth of the cells were then placed onto a new 10 cm dish. Cells were grown in a 37° C. incubator with 5% CO2 in Minimal Essential Media Eagle with 10% Fetal Bovine Serum. After two days cells were approximately 80% confluent. These were removed from the dish with trypsin and pelleted in a clinical centrifuge. The pellet was then re-suspended in 400 μL complete media and transferred to an electroporation cuvette with a 0.4 cm gap between the electrodes. One microgram of supercoiled H3 receptor cDNA was added to the cells and mixed. The voltage for the electroporation was set at 0.25 kV, the capacitance was set at 960 μF. After electroporation the cells were diluted into 10 mL complete media and plated onto four 10 cm dishes. Because of the variability in the efficiency of electroporation, four different concentrations of cells were plated. The ratios used were; 1:20, 1:10, 1:5, with the remainder of the cells being added to the fourth dish. The cells were allowed to recover for 24 hours before adding the selection media (complete media with 600 μg/mL G418). After 10 days dishes were analyzed for surviving colonies of cells. Dishes with well isolated colonies were used. Cells from individual colonies were isolated and tested. SK-N-MC cells were used because they give efficient coupling for inhibition of adenylate cyclase. The clones that gave the most robust inhibition of adenylate cyclase in response to histamine were used for further study.
[^3H]-N-methylhistamine Binding
Cell pellets from histamine H3 receptor-expressing SK-N-MC cells were homogenized in 20 mM Tris HCl/0.5 mM EDTA. Supernatants from a 800 g spin were collected, recentrifuged at 30,000 g for 30 min. Pellets were re-homogenized in 50 mM Tris/5 mM EDTA (pH 7.4). Membranes were incubated with 0.8 nM [^3H]-N-methylhistamine plus/minus test compounds for 45 min at 25° C. and harvested by rapid filtration over GF/C glass fiber filters (pretreated with 0.3% polyethylenimine) followed by four washes with ice cold buffer. Filters were dried, added to 4 mL scintillation cocktail and then counted on a liquid scintillation counter. Non-specific binding was defined with 10 μM histamine.

[1] = membranes of histamine H3 receptor-expressing SK-N-MC cells, 0.8 nM [3H]-N-methylhistamine, 45 min at 25° C., read-out: Ki

T1 sequence (Q9Y5N1 whole entry): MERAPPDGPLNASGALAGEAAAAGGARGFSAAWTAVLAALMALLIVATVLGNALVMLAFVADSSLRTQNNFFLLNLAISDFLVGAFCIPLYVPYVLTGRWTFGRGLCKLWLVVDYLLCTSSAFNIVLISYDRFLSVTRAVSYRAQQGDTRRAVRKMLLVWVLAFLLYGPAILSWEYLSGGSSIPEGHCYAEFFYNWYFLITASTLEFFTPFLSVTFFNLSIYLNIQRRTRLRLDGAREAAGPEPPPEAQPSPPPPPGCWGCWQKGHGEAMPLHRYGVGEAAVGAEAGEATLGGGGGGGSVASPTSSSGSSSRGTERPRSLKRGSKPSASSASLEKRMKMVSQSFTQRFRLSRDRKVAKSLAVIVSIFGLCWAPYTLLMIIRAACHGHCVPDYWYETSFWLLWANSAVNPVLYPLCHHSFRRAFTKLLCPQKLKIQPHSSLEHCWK

Question: Which Ki [1] does the source give for `CCN(CC)CCC#Cc1ccc(CN2CCCCC2)cc1` [Example 19, Diethyl-[4-(4-piperidin-1-ylmethyl-phenyl)-but-3-ynyl]-amine] here?
Answer: 2.4 nM

Question: With `NC(=O)C1CCN(Cc2cccc(C#CCCN3CCCCC3)c2)CC1` [Example 45, 1-[3-(4-Piperidin-1-yl-but-1-ynyl)-benzyl]-piperidine-4-carboxylic acid amide] as the compound, how does the Ki [1] read?
Answer: 2 nM

Question: With `CC(C)N1CCN(Cc2ccc(C#CCCN3CCCCC3)cc2)CC1` [Example 39, 1-Isopropyl-4-[4-(4-piperidin-1-yl-but-1-ynyl)-benzyl]-piperazine] as the compound, how does the Ki [1] read?
Answer: 1.3 nM

Question: How did the Ki [1] turn out when `C(#Cc1cccc(CN2CCN(c3ncccn3)CC2)c1)CCN1CCCCC1` [Example 44, 2-{4-[3-(4-Piperidin-1-yl-but-1-ynyl)-benzyl]-piperazin-1-yl}-pyrimidine] was run?
Answer: 9 nM

Question: How did the Ki [1] turn out when `C(#Cc1ccc(CN2CCCCC2)cc1)CCN1CCCCC1` [Example 14, 1-[4-(4-Piperidin-1-ylmethyl-phenyl)-but-3-ynyl]-piperidine] was run?
Answer: 1.6 nM

Question: Which Ki [1] does the source give for `OC1CCN(Cc2ccc(C#CCCN3CCCCC3)cc2)CC1` [Example 27, 1-[4-(4-Piperidin-1-yl-but-1-ynyl)-benzyl]-piperidin-4-ol] here?
Answer: 1.7 nM

Question: With `NC(=O)C1CCN(Cc2ccc(C#CCCN3CCCCC3)cc2)CC1` [Example 30, 1-[4-(4-Piperidin-1-yl-but-1-ynyl)-benzyl]-piperidine-4-carboxylic acid amide] as the compound, how does the Ki [1] read?
Answer: 1.6 nM

Question: With `COc1ccc(CCN(C)Cc2cccc(C#CCCN3CCCCC3)c2)cc1OC` [Example 47, [2-(3,4-Dimethoxy-phenyl)-ethyl]-methyl-[3-(4-piperidin-1-yl-but-1-ynyl)-benzyl]-amine] as the compound, how does the Ki [1] read?
Answer: 3 nM

Question: `C=CCN(Cc1cccc(C#CCCN2CCCCC2)c1)C1CCCC1` [Example 49, Allyl-cyclopentyl-[3-(4-piperidin-1-yl-but-1-ynyl)-benzyl]-amine] was tested. Which Ki [1] did it give?
Answer: 2 nM

Question: With `C(#Cc1cccc(CNc2ccccc2)c1)CCN1CCCCC1` [Example 54, Phenyl-[3-(4-piperidin-1-yl-but-1-ynyl)-benzyl]-amine] as the compound, how does the Ki [1] read?
Answer: 110 nM

Question: Which Ki [1] does the source give for `C(#Cc1ccc(CN2CCCCC2)cc1)CCN1CCSCC1` [Example 20, 4-[4-(4-Piperidin-1-ylmethyl-phenyl)-but-3-ynyl]-thiomorpholine] here?
Answer: 6 nM

Question: Which Ki [1] does the source give for `C(#Cc1cccc(CN2CCSC2)c1)CCN1CCCCC1` [Example 51, 1-[4-(3-Thiazolidin-3-ylmethyl-phenyl)-but-3-ynyl]-piperidine] here?
Answer: 1 nM

Question: With `C(#Cc1ccc(CN2CCNCC2)cc1)CCN1CCCCC1` [Example 38, 1-[4-(4-Piperidin-1-yl-but-1-ynyl)-benzyl]-piperazine] as the compound, how does the Ki read?
Answer: 1.3 nM

Question: With `CN1CCN(CCC#Cc2ccc(CN3CCCCC3)cc2)CC1` [Example 22, 1-Methyl-4-[4-(4-piperidin-1-ylmethyl-phenyl)-but-3-ynyl]-piperazine] as the compound, how does the Ki [1] read?
Answer: 21 nM

Question: `C(#Cc1ccc(CN2CCCC3CCCCC32)cc1)CCN1CCCCC1` (stereo not shown) [Example 29, 1-[4-(4-Piperidin-1-yl-but-1-ynyl)-benzyl]-decahydro-quinoline] was tested. Which Ki [1] did it give?
Answer: 0.8 nM

Question: Which Ki [1] does the source give for `C(#Cc1ccc(CNC2CCc3ccccc32)cc1)CCN1CCCCC1` (stereo not shown) [Example 34, Indan-1-yl-[4-(4-piperidin-1-yl-but-1-ynyl)-benzyl]-amine] here?
Answer: 1.3 nM

Question: Which Ki [1] does the source give for `C(#Cc1cccc(CN2CCCCC2)c1)CCN1CCCCC1` [Example 15, 1-[3-(4-Piperidin-1-yl-but-1-ynyl)-benzyl]-piperidine] here?
Answer: 0.8 nM

Question: `C(#Cc1ccc(CN2CCN(c3ccccc3)CC2)cc1)CCN1CCCCC1` [Example 35, 1-Phenyl-4-[4-(4-piperidin-1-yl-but-1-ynyl)-benzyl]-piperazine] was tested. Which Ki [1] did it give?
Answer: 7 nM

Question: With `C(#Cc1ccc(CN2CCCCC2)cc1)CCN1CCOCC1` [Example 21, 4-[4-(4-Piperidin-1-ylmethyl-phenyl)-but-3-ynyl]-morpholine] as the compound, how does the Ki [1] read?
Answer: 15 nM

Question: `C(#Cc1ccc(CN2CCOCC2)cc1)CCN1CCCCC1` [Example 24, 4-[4-(4-Piperidin-1-yl-but-1-ynyl)-benzyl]-morpholine] was tested. Which Ki [1] did it give?
Answer: 5.5 nM

Question: With `C(#Cc1ccc(CN2CCCC2)cc1)CCN1CCCCC1` [Example 23, 1-[4-(4-Pyrrolidin-1-ylmethyl-phenyl)-but-3-ynyl]-piperidine] as the compound, how does the Ki [1] read?
Answer: 1.4 nM

Question: How did the Ki (read-out: Ki) turn out when `O=C1NCN(c2ccccc2)C12CCN(Cc1cccc(C#CCCN3CCCCC3)c1)CC2` [Example 40, 1-Phenyl-8-[3-(4-piperidin-1-yl-but-1-ynyl)-benzyl]-1,3,8-triaza-spiro[4.5]decan-4-one] was run?
Answer: 2 nM

Question: With `CC(C)(C)OC(=O)N1CCN(Cc2ccc(C#CCCN3CCCCC3)cc2)CC1` [Example 37, 4-[4-(4-Piperidin-1-yl-but-1-ynyl)-benzyl]-piperazine-1-carboxylic acid tert-butyl ester] as the compound, how does the Ki [1] read?
Answer: 15 nM

Question: Which Ki [1] does the source give for `CCN(CC)C(=O)C1CCCN(Cc2cccc(C#CCCN3CCCCC3)c2)C1` (stereo not shown) [Example 41, 1-[3-(4-Piperidin-1-yl-but-1-ynyl)-benzyl]-piperidine-3-carboxylic acid diethylamide] here?
Answer: 3 nM

Question: `C(#Cc1ccc(CNC2CCCCC2)cc1)CCN1CCCCC1` [Example 33, Cyclohexyl-[4-(4-piperidin-1-yl-but-1-ynyl)-benzyl]-amine] was tested. Which Ki [1] did it give?
Answer: 0.5 nM

Question: With `CN(CCc1ccccn1)Cc1cccc(C#CCCN2CCCCC2)c1` [Example 46, Methyl-[3-(4-piperidin-1-yl-but-1-ynyl)-benzyl]-(2-pyridin-2-yl-ethyl)-amine] as the compound, how does the Ki [1] read?
Answer: 4 nM

Question: `C(#Cc1ccc(CN2CCC(Cc3ccccc3)CC2)cc1)CCN1CCCCC1` [Example 26, 1-{4-[4-(4-Benzyl-piperidin-1-ylmethyl)-phenyl]-but-3-ynyl}-piperidine] was tested. Which Ki [1] did it give?
Answer: 2.9 nM

Question: How did the Ki [1] turn out when `C(#Cc1cccc(CN2CCSCC2)c1)CCN1CCCCC1` [Example 48, 4-[3-(4-Piperidin-1-yl-but-1-ynyl)-benzyl]-thiomorpholine] was run?
Answer: 1 nM

Question: With `FC(F)(F)c1cccc(N2CCN(Cc3cccc(C#CCCN4CCCCC4)c3)CC2)c1` [Example 43, 1-[3-(4-Piperidin-1-yl-but-1-ynyl)-benzyl]-4-(3-trifluoromethyl-phenyl)-piperazine] as the compound, how does the Ki read?
Answer: 91 nM

Question: How did the Ki [1] turn out when `C(#Cc1cccc(CN2CCCC2)c1)CCN1CCCCC1` [Example 55, 1-[4-(3-Pyrrolidin-1-ylmethyl-phenyl)-but-3-ynyl]-piperidine] was run?
Answer: 1 nM

Question: With `C(#Cc1cccc(CN2CCCCCCCCCCCC2)c1)CCN1CCCCC1` [Example 56, 1-[3-(4-Piperidin-1-yl-but-1-ynyl)-benzyl]-azacyclotridecane] as the compound, how does the Ki [1] read?
Answer: 13 nM

Question: With `CCN(CC)Cc1ccc(C#CCCN2CCCCC2)cc1` [Example 25, Diethyl-[4-(4-piperidin-1-yl-but-1-ynyl)-benzyl]-amine] as the compound, how does the Ki [1] read?
Answer: 1.1 nM

Question: With `CN1CCN(Cc2ccc(C#CCCN3CCCCC3)cc2)CC1` [Example 32, 1-Methyl-4-[4-(4-piperidin-1-yl-but-1-ynyl)-benzyl]-piperazine] as the compound, how does the Ki read?
Answer: 0.7 nM

Question: Which Ki [1] does the source give for `OCCC1CCCCN1Cc1ccc(C#CCCN2CCCCC2)cc1` (stereo not shown) [Example 28, 2-{1-[4-(4-Piperidin-1-yl-but-1-ynyl)-benzyl]-piperidin-2-yl}-ethanol] here?
Answer: 0.4 nM

Question: Which Ki [1] does the source give for `C(#Cc1cccc(CN2CCOCCOCCOCC2)c1)CCN1CCCCC1` [Example 50, 10-[3-(4-Piperidin-1-yl-but-1-ynyl)-benzyl]-1,4,7-trioxa-10-aza-cyclododecane] here?
Answer: 2 nM

Question: Which Ki does the source give for `C(#Cc1ccc(CN2CCN(Cc3ccccc3)CC2)cc1)CCN1CCCCC1` [Example 36, 1-Benzyl-4-[4-(4-piperidin-1-yl-but-1-ynyl)-benzyl]-piperazine] here?
Answer: 9 nM

Question: How did the Ki turn out when `CN(CCc1c[nH]c2ccccc12)Cc1cccc(C#CCCN2CCCCC2)c1` [Example 52, [2-(1H-Indol-3-yl)-ethyl]-methyl-[3-(4-piperidin-1-yl-but-1-ynyl)-benzyl]-amine] was run?
Answer: 2 nM

Question: For `C(#Cc1ccc(CN2CCCCC2)cc1)CCN1CCCC1` [Example 18, 1′-[4-(4-Pyrrolidin-1-yl-but-1-ynyl)-benzyl]-piperidine], which Ki [1] is on record?
Answer: 2 nM

Question: `C(#Cc1cccc(CN2CCCCC2c2cccnc2)c1)CCN1CCCCC1` (stereo not shown) [Example 42, 1-[3-(4-Piperidin-1-yl-but-1-ynyl)-benzyl]-1,2,3,4,5,6-hexahydro-[2,3′]bipyridinyl] was tested. Which Ki did it give?
Answer: 11 nM

Question: With `C(#Cc1ccc(CN2CCC3(CC2)OCCO3)cc1)CCN1CCCCC1` [Example 31, 8-[4-(4-Piperidin-1-yl-but-1-ynyl)-benzyl]-1,4-dioxa-8-aza-spiro[4.5]decane] as the compound, how does the Ki [1] read?
Answer: 1.8 nM

— patent US7446104B2, “Phenylalkynes” (Ortho-McNeil Pharmaceutical, Inc., priority 2001, dated 2008)
